{"source": "patent US6987101B1", "about": "“Therapeutic gestagens for the treatment of premenstrual dysphoric disorder” (Schering Aktiengesellschaft, priority 1996, dated 2006)", "test_system": "premenstrual dysphoric disorder (PMDD) symptoms", "assay": "Oral treatment of women classified as PMDD patients over 4 to 6 cycles, re-evaluation of symptom criteria 1 to 11", "type": "in vivo, fertile women", "details": "3 mg drospirenone together with 30 μg ethinylestradiol orally daily, day 1 to day 21 of the cycle, then 7 pill-free or placebo days; evaluated after 4 to 6 cycles; all of the women treated", "excerpt": "In the prospective evaluation by recording the symptoms of the patient over 2 or 3 menstrual cycles, 5 (or more) of the symptoms that are listed below occur during the last week of the luteal phase, but no longer occur postmenstrually. At least one of the symptoms must be the first, second, third or fourth symptom below. • 1. Noticeably stressed mental state, feelings of hopelessness or self-doubt • 2. Noticeable feeling of anxiety, tension, feeling of “being on the edge” • 3. Noticeable emotional tendencies (e.g., suddenly feeling sad or fretful or increased sensitivity to rejection) • 4. Lasting and noticeable feelings of unease or irritability or increased interpersonal conflicts • 5. Decreasing interest in conventional activities (e.g., work, school, friends, hobbies) • 6. Subjective sensation of concentration difficulties • 7. Lethargy, slight exhaustion or noticeable lack of energy • 8. Noticeable change in appetite, overeating or special food cravings • 9. […]\nFertile women, who were classified according to the above-indicated criteria 1. to 11. as PMDD patients, are treated orally over at least 4 cycles, in each case from day 1 to day 21 of the cycle daily, with an amount of 3 mg of drospirenone together with 30 μg of ethinylestradiol. […] After a treatment over 4 to 6 cycles, the symptoms that fall into the category criteria 1. to 11. are carefully evaluated again.", "data": [{"smiles": "C[C@]12CCC(=O)C=C1[C@@H]1C[C@@H]1[C@H]1[C@@H]3[C@@H]4C[C@@H]4[C@@]4(CCC(=O)O4)[C@@]3(C)CC[C@@H]12", "note": "[drospirenone]", "values": [{"measurement": "improvement relative to at least one of the PMDD symptoms that occurred before the beginning of the treatment (not only the 11th symptom)", "result": "significant improvement"}]}]}
